ChEMBL document CHEMBL4033684, “Development of nonsteroidal glucocorticoid receptor modulators based on N-benzyl-N-(4-phenoxyphenyl)benzenesulfonamide scaffold” (Bioorg Med Chem, 2017)
Activity calls are given as the source filed them. The calls are words filed in the database; no cut-off is given here.

What was measured:
Assay type in all cases: cell-based
[1] = target: Estrogen receptor beta (Homo sapiens) (UniProt Q92731); test: Antagonist activity at human GAL4-fused ERbeta LBD expressed in HEK293 cells at 30 uM after 24 hrs by luciferase reporter gene assay
[2] = target: T1, Androgen receptor (Homo sapiens) (UniProt P10275); test: Antagonist activity at human AR expressed in HEK293 cells at 30 uM after 24 hrs by luciferase reporter gene assay
T1 sequence (whole entry): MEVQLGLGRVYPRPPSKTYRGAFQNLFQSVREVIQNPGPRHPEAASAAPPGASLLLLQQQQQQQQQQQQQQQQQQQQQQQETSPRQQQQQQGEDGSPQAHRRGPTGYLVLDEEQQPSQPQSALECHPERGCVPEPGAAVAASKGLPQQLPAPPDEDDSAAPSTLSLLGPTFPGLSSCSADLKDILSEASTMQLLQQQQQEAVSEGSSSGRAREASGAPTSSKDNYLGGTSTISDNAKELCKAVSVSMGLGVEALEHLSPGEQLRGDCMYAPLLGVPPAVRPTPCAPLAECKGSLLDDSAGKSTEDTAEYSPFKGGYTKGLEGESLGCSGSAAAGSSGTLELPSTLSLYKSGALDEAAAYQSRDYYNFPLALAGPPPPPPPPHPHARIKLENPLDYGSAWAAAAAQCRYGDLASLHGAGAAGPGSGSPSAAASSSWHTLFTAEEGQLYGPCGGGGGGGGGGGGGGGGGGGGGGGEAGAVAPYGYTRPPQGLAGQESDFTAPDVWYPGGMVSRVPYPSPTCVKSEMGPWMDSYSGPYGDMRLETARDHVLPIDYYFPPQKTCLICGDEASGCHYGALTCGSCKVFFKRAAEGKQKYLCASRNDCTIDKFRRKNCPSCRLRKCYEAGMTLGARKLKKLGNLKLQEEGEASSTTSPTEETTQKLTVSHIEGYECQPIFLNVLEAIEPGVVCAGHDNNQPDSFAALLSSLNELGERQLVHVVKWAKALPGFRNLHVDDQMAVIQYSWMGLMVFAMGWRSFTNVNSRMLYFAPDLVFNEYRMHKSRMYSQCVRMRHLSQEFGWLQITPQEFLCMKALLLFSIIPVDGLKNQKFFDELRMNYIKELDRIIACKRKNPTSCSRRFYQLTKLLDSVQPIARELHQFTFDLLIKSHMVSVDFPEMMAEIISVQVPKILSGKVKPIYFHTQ

[3] = target: T2, Glucocorticoid receptor (Homo sapiens) (UniProt P04150); test: Transrepression of human GRalpha expressed in HEK293 cells co-expressing pGL4.32 assessed as inhibition of TNFalpha-stimulated NF-kB activity at 30 uM preincubated for 4 hrs followed by TNFalpha addition measured after 3 hrs by luciferase reporter gene assay relative to control
T2 sequence (whole entry): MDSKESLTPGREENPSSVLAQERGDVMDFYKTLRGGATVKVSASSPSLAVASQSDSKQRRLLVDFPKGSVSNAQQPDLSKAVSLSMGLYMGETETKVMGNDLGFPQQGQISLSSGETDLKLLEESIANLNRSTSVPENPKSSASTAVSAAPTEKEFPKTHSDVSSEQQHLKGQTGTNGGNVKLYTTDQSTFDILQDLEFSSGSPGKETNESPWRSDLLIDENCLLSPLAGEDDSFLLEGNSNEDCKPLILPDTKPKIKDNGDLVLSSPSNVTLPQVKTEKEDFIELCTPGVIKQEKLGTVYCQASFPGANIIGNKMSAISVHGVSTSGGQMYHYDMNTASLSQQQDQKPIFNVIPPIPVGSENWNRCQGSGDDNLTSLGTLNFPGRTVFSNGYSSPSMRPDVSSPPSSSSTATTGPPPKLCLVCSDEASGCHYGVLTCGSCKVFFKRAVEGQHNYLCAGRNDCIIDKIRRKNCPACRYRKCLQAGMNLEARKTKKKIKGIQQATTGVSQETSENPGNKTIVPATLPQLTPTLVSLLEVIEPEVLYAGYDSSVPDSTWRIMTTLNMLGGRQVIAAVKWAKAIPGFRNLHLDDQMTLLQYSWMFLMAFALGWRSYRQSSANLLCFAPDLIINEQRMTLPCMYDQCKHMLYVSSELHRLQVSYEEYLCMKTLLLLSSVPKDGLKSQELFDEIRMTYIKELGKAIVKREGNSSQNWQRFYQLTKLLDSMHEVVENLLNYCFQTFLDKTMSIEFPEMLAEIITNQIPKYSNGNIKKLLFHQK

Progesterone receptor = target: T3, Progesterone receptor (Homo sapiens, UniProt P06401); test: Antagonist activity at PR in human T47D cells assessed as inhibition of progesterone-induced response after 24 hrs by alkaline phosphatase assay
T3 sequence (P06401 whole entry): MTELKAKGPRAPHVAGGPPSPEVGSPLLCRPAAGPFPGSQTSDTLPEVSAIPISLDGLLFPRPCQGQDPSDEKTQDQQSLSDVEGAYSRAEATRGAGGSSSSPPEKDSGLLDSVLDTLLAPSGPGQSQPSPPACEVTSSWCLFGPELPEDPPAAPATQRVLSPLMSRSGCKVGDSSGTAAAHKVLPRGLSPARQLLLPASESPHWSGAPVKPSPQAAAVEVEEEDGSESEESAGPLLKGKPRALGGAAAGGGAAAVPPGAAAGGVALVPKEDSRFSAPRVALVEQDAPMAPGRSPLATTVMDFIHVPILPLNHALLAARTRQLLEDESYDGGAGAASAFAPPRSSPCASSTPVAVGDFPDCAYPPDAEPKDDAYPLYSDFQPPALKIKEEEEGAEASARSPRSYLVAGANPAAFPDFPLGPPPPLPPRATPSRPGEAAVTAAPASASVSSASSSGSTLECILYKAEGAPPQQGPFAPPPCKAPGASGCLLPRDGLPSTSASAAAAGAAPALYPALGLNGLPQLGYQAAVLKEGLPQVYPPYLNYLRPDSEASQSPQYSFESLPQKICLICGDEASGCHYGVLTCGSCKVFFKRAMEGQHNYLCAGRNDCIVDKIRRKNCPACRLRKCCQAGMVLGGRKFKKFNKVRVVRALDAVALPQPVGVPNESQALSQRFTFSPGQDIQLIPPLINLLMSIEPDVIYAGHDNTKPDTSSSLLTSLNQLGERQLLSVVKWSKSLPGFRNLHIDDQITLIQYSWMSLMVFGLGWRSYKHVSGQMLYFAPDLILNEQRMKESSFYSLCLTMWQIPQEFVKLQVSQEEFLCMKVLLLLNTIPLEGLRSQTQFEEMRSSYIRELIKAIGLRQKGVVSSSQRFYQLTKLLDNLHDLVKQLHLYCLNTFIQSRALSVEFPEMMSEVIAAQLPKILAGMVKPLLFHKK

[4] = target: T4, Estrogen receptor (Homo sapiens) (UniProt P03372); test: Antagonist activity at human GAL4-fused ERalpha LBD expressed in HEK293 cells at 30 uM after 24 hrs by luciferase reporter gene assay
T4 sequence (whole entry): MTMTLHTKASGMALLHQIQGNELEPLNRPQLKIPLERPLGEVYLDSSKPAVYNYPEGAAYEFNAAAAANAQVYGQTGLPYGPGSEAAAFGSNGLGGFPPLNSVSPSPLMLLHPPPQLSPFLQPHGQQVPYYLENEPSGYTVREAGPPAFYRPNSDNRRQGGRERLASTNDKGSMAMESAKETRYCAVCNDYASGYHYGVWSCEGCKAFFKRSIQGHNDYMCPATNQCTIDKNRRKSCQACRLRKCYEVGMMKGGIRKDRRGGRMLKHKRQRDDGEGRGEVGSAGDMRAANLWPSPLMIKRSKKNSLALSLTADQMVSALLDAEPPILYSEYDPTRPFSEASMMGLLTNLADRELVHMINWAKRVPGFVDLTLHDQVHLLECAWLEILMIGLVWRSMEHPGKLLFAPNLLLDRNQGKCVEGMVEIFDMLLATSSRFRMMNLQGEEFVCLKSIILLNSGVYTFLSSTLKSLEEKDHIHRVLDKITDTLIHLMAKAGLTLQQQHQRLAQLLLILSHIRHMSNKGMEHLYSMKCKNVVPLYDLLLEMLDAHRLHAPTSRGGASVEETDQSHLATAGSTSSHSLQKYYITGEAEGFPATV

Glucocorticoid receptor [5] = target: T5, Glucocorticoid receptor (Homo sapiens, UniProt P04150); test: Transactivation of human GRalpha expressed in HEK293 cells after 24 hrs by luciferase reporter gene assay; settings: hek293, 24 h
T5 sequence (P04150 whole entry): T2 sequence (whole entry)

Glucocorticoid receptor [6] = target: T5, Glucocorticoid receptor; test: Antagonist activity at human GRalpha expressed in HEK293 cells assessed as inhibition of dexamethasone-induced response after 24 hrs by luciferase reporter gene assay

Estrogen receptor beta (Homo sapiens), sequence (Q92731 whole entry, the tested form may be a part): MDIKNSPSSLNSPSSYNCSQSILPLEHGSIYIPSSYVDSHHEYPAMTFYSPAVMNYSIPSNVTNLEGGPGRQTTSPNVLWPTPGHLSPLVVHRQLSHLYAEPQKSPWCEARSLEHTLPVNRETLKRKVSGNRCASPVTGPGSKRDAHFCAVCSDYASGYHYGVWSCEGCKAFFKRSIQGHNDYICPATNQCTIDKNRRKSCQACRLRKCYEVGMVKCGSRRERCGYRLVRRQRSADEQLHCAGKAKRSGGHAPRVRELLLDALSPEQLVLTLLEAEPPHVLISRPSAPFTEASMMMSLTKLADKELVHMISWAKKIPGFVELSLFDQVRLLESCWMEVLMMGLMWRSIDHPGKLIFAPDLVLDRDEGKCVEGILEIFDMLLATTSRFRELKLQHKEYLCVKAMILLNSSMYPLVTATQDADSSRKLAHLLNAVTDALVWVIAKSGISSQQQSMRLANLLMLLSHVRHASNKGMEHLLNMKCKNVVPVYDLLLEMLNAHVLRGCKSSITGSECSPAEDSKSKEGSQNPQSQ

inhibition [1]: inactive
inhibition [2]: inactive
inhibition [3]: inactive
IC50 (Progesterone receptor): 8 µM
inhibition [4]: inactive
Activity (Glucocorticoid receptor [5]): Not Active
IC50 (Glucocorticoid receptor [6]): 1.43 µM
Structure (SMILES): N#Cc1ccc(S(=O)(=O)N(Cc2ccccc2)c2ccc(Oc3ccccc3)cc2)cc1
